The results in this text go back to PMC6934184, “Selective DNA-PKcs inhibition extends the therapeutic index of localized radiotherapy and chemotherapy” (The Journal of Clinical Investigation, 2019).

In general, inhibition refers to the share of the control response that was lost under treatment. A higher inhibition goes with strong suppression.

The target in the experiment is T1, SGK (SGK1) (Homo sapiens, UniProt O00141).
T1 construct: purchased Thermo Fisher Scientific (Life Technologies) SelectScreen
Nature of the experiment: SelectScreen Z'LYTE. In kind it is biochemical. In short, it runs like this:
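Percent values come from Thermo SelectScreen profiling of NU5455, combining activity and binding assays. CSF1R was run in Z'LYTE format at Km app ATP, and CAMK1 in Adapta format with ATP listed at 10.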

T1 sequence (O00141 whole entry): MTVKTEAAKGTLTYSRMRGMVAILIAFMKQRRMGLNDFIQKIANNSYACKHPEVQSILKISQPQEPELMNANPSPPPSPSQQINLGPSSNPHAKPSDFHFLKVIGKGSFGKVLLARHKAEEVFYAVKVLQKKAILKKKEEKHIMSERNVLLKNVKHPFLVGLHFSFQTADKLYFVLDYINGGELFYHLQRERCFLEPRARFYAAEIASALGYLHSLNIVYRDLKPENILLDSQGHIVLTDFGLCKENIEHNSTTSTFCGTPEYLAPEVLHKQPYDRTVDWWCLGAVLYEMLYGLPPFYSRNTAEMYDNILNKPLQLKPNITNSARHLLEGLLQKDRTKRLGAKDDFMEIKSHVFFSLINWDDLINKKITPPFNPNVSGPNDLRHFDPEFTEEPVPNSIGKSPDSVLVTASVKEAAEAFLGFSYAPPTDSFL

In the case of `CN(C(=O)CN1CCOCC1)c1ccc2sc3c(-c4cccc5c(=O)cc(N6CC7CCC(C6)O7)oc45)cccc3c2c1` [NU5455], the inhibition at 1 µM amounted to 8.5%.
